Experimental data reported in publication PMC5429769, “Rational development of Stafib-2: a selective, nanomolar inhibitor of the transcription factor STAT5b” (Scientific Reports, 2017).
Substitutions are numbered along the chain they refer to.

Tests used:
Format in all cases: binding
STAT5b SH2 domain = target: T1, STAT5b SH2 domain (Homo sapiens, UniProt P51692); assay: Fluorescence polarization assay, STAT5b SH2 domain
T1 sequence (P51692 1-787): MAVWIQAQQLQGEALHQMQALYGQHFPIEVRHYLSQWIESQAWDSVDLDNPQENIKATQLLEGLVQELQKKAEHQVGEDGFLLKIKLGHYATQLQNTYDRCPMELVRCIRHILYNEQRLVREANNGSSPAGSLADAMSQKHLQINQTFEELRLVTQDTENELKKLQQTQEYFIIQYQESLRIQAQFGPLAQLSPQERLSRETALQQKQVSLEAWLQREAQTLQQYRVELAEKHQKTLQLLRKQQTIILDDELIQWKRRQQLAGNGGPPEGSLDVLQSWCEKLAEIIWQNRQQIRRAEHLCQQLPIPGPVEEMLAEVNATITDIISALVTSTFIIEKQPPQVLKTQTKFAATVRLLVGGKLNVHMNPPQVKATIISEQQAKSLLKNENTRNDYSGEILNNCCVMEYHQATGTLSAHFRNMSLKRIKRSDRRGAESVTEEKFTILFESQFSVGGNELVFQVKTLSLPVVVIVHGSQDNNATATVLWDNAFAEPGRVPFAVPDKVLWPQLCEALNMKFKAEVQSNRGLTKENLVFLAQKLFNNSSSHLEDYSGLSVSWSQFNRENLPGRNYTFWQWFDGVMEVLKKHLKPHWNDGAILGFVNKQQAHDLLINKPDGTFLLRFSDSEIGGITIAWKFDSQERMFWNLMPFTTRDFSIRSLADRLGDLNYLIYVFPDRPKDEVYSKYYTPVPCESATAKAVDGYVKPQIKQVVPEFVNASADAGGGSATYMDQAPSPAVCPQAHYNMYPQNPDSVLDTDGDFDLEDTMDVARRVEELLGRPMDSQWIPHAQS

STAT5b Phe633Ala = target: T2, STAT5b Phe633Ala (Homo sapiens, UniProt P51692, F633A); assay: Isothermal titration calorimetry, STAT5b Phe633Ala; settings: ITC, 25 °C, n = 2
T2 sequence (P51692 1-787 F633A): T1 sequence (P51692 1-787) with F633A

STAT5b Arg618Ala = target: T3, STAT5b Arg618Ala (Homo sapiens, UniProt P51692, R618A); assay: Isothermal titration calorimetry, STAT5b Arg618Ala; settings: ITC, 25 °C
T3 sequence (P51692 1-787 R618A): T1 sequence (P51692 1-787) with R618A

SMILES: O=C(COc1ccc(C(=O)Nc2ccc(Oc3ccccc3)cc2)cc1)NCc1ccc(OP(=O)(O)O)c(OP(=O)(O)O)c1 [compound 4, 4-((2-(4-((4-phenoxyphenyl)carbamoyl)phenoxy)acetamido)methyl)-1,2-phenylene bis(dihydrogen phosphate)]
- fold reduced Ki value relative to 2 (STAT5b SH2 domain; STAT5b Ki): 5 fold
- fold reduction in Ki value relative to 3 (STAT5b SH2 domain; STAT5b Ki): more than 10 fold
- Ki (STAT5b SH2 domain; abstract, rounded): 9 nM
- Ki (STAT5b SH2 domain; converted from IC50 using the published equation, mean ± s.d., n = 3): 8.8 ± 0.3 nM
- IC50 (STAT5b SH2 domain; fluorescence polarization, mean ± s.d., three independent experiments): 82 ± 3 nM
- Kd (STAT5b Phe633Ala): 1650 ± 20 nM
- ΔH (STAT5b Phe633Ala): -4.3 ± 0.2 kcal/mol
- −TΔS (STAT5b Phe633Ala): -3.6 ± 0.2 kcal/mol
- Kd (STAT5b Arg618Ala): 5.6 ± 1.7 µM
